Data as given in US9670212B2, “Inhibitors of PI3K-delta and methods of their use and manufacture” (Exelixis, Inc., priority 2010, dated 2017).

molecular target: PI3K delta (Homo sapiens (Human), UniProt O00329); assay: Luciferase-coupled chemiluminescence kinase assay (KinaseGlo, ATP consumption); assay type: biochemical
Description: Kinase activity and compound inhibition were investigated using one or more of the assay formats described below. The ATP concentrations used in the various assays were approximately equal to or less than the KM for each of the respective kinases. Dose-response experiments were performed using an intra-plate dilution scheme with 10 different inhibitor concentrations in a 384-well microtiter plate. […] Typically N should approximate unity. Curve fitting was performed using XLFit or ActivityBase. Luciferase-Coupled Chemiluminescence Assay Protocol
Kinase activity is measured as the percent of ATP consumed following the kinase reaction using luciferase-luciferin-coupled chemiluminescence. […] Kinase reactions were initiated by combining test compounds, kinase, and ATP in a 20 μL volume (6 μL volume for 1536-well plate). The reaction mixture was incubated at ambient temperature for 2 h. Following the kinase reaction, a 20 μL (or 3 μL for 1536-well plate) aliquot of KinaseGlo (Promega) was added and the chemiluminescence signal measured using an EnVision plate reader (Perkin Elmer).

PI3K delta, sequence (O00329 whole entry): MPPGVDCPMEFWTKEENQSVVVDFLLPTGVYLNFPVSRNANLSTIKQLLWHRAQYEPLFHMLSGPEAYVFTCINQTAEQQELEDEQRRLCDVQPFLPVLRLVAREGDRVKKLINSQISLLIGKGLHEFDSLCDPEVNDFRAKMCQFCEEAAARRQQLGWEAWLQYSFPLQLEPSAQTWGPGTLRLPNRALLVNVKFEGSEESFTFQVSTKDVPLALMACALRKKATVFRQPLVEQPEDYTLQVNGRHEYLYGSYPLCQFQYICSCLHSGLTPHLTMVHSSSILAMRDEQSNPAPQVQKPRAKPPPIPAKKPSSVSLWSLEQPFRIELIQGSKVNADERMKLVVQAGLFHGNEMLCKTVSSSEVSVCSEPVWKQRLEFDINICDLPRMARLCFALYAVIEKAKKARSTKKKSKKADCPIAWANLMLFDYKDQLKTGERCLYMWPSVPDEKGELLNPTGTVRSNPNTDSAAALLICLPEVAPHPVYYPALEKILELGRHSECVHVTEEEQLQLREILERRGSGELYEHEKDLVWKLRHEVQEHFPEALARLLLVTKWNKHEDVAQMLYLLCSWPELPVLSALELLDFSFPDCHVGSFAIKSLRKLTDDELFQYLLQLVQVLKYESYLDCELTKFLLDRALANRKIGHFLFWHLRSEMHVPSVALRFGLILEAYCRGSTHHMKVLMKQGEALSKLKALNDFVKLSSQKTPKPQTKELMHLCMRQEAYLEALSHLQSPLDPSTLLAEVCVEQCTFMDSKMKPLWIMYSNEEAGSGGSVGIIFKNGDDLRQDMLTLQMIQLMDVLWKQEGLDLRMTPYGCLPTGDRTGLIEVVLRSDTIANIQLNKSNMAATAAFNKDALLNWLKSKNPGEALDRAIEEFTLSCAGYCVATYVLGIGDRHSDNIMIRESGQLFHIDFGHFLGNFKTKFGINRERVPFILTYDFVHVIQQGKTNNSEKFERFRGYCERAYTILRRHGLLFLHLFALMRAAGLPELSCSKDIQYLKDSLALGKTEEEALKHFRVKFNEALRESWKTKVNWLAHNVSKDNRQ
PI3K delta, sequence (P27986 whole entry partner): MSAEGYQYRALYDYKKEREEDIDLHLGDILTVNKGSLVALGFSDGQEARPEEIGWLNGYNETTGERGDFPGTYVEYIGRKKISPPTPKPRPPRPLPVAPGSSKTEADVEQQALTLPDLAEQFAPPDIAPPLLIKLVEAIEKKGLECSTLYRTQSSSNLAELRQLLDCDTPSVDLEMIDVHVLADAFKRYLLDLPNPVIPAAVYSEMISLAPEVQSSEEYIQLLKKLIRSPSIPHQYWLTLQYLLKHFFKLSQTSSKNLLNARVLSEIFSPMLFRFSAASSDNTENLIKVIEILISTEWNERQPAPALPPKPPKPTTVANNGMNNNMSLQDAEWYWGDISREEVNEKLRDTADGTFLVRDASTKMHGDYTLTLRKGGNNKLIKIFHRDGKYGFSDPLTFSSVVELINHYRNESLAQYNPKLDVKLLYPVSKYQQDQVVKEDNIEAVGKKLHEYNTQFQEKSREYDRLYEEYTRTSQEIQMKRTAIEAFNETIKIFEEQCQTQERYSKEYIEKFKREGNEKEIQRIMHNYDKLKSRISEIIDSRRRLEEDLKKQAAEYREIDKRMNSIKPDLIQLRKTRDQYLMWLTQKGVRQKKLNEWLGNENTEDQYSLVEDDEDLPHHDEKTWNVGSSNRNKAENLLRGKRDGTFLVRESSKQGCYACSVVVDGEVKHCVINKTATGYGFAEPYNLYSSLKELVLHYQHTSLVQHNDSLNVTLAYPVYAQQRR

IC50 [nM] | Compound
500 to 1500 | Cc1cccc2cc(Cn3cnc4c(N)ncnc43)c(NC3CCN(C)CC3)nc12 [Compound 164, 3-[(6-amino-9H-purin-9-yl)methyl]-8-methyl-N-(1-methylpiperidin-4-yl)quinolin-2-amine]
250 to 500 | CN(C)C(=O)c1ccccc1-c1cc2ccccc2nc1CNC(=O)c1nccnc1N [Compound 56, 3-amino-N-[(3-{2-[(dimethylamino)carbonyl]phenyl}quinolin-2-yl)methyl]pyrazine-2-carboxamide]
250 to 500 | Cc1cccc2cc(CNC(=O)c3nccnc3N)c(N3CCCN(C)CC3)nc12 [Compound 140, 3-amino-N-{[8-methyl-2-(4-methyl-1,4-diazepan-1-yl)quinolin-3-yl]methyl}pyrazine-2-carboxamide]
< 50 | Cc1cccc2cc(CNc3ncnc4[nH]cnc34)c(N(C)CC3CCCN(C)C3)nc12 (centres unmarked) [Compound 32, N,8-dimethyl-N-[(1-methylpiperidin-3-yl)methyl]-3-[(9H-purin-6-ylamino)methyl]quinolin-2-amine]
50 to 250 | CC(=O)N1CCN(c2nc3c(C)cccc3cc2Cn2cnc3c(N)ncnc32)CC1 [Compound 166, 9-{[2-(4-acetylpiperazin-1-yl)-8-methylquinolin-3-yl]methyl}-9H-purin-6-amine]
50 to 250 | Cc1cccc2cc(CNC(=O)c3nccnc3N)c(N(C)CCN(C)C(=O)CN3CCCC3)nc12 [Compound 109, 3-amino-N-{[8-methyl-2-(methyl{2-[methyl(pyrrolidin-1-ylacetyl)amino]ethyl}amino)quinolin-3-yl]methyl}pyrazine-2-carboxamide]
500 to 1500 | CNCCN(C)c1nc2c(C)cccc2cc1CNc1ccc(OC)cc1 [Compound 20, N,N′-dimethyl-N-[8-methyl-3-({[4-(methyloxy)phenyl]amino}methyl)quinolin-2-yl]ethane-1,2-diamine]
50 to 250 | Cc1ccccc1-c1cc2ccccc2nc1Cn1cnc2ncnc(N)c21 [Compound 178, 7-{[3-(2-methylphenyl)quinolin-2-yl]methyl}-7H-purin-6-amine]
50 to 250 | Cc1cccc2cc(Cn3cnc4c(N)ncnc43)c(N3CCCC3)nc12 [Compound 171, 9-[(8-methyl-2-pyrrolidin-1-ylquinolin-3-yl)methyl]-9H-purin-6-amine]
< 50 | Cc1cccc2cc(CNc3ncnc4[nH]cnc34)c(N3CCCN(C)CC3)nc12 [Compound 146, N-{[8-methyl-2-(4-methyl-1,4-diazepan-1-yl)quinolin-3-yl]methyl}-9H-purin-6-amine]
50 to 250 | Cc1cccc2cc(CNc3ncnc4[nH]cnc34)c(N3CCCCC3)nc12 [Compound 27, N-[(8-methyl-2-piperidin-1-ylquinolin-3-yl)methyl]-9H-purin-6-amine]
250 to 500 | COCCOc1cccc(-c2nc3c(C)cccc3cc2Cn2cnc3c(N)ncnc32)c1 [Compound 184, 9-{[8-methyl-2-(3-{[2-(methyloxy)ethyl]oxy}phenyl)quinolin-3-yl]methyl}-9H-purin-6-amine]
50 to 250 | Cc1cccc2cc(Cn3cnc4c(N)ncnc43)c(-c3ccccc3C(F)(F)F)nc12 [Compound 182, 9-({8-methyl-2-[2-(trifluoromethyl)phenyl]quinolin-3-yl}methyl)-9H-purin-6-amine]
500 to 1500 | Cc1cccc2cc(COc3ccc4c(c3)OCO4)c(-c3ccccc3Cl)nc12 [Compound 8, 3-[(1,3-benzodioxol-5-yloxy)methyl]-2-(2-chlorophenyl)-8-methylquinoline]
500 to 1500 | Cc1cccc2cc(CNc3ncnc4[nH]cnc34)c(N3CCc4ccccc4C3)nc12 [Compound 19, N-{[2-(3,4-dihydroisoquinolin-2(1H)-yl)-8-methylquinolin-3-yl]methyl}-9H-purin-6-amine]
500 to 1500 | Cc1cccc2cc(CNC(=O)c3nccnc3N)c(N3CCCN(Cc4nccn4C)CC3)nc12 [Compound 62, 3-amino-N-[(8-methyl-2-{4-[(1-methyl-1H-imidazol-2-yl)methyl]-1,4-diazepan-1-yl}quinolin-3-yl)methyl]pyrazine-2-carboxamide]
< 50 | Cc1cccc2cc(CNc3ncnc4[nH]cnc34)c(N(C)CC3CCN(C)CC3)nc12 [Compound 33, N,8-dimethyl-N-[(1-methylpiperidin-4-yl)methyl]-3-[(9H-purin-6-ylamino)methyl]quinolin-2-amine]
500 to 1500 | Cc1cccc2cc(Cn3cnc4c(N)ncnc43)c(N3CCc4ccccc4C3)nc12 [Compound 14, 9-{[2-(3,4-dihydroisoquinolin-2(1H)-yl)-8-methylquinolin-3-yl]methyl}-9H-purin-6-amine]
50 to 250 | Nc1nccnc1C(=O)NCc1nc2ccccc2cc1-c1ccccc1CN1CCCCC1 [Compound 59, 3-amino-N-({3-[2-(piperidin-1-ylmethyl)phenyl]quinolin-2-yl}methyl)pyrazine-2-carboxamide]

IC50 [nM] | Compound
500 to 1500 | CNCCN(C)c1nc2c(C)cccc2cc1CN1CCOCC1 [Compound 21, N,N′-dimethyl-N-[8-methyl-3-(morpholin-4-ylmethyl)quinolin-2-yl]ethane-1,2-diamine]
500 to 1500 | COc1ccc(OC(C)c2cc3cccc(C)c3nc2-c2ccccc2Cl)cc1 (centres unmarked) [Compound 17, 2-(2-chlorophenyl)-8-methyl-3-(1-{[4-(methyloxy)phenyl]oxy}ethyl)quinoline]
< 50 | Cc1cccc2cc(CNC(=O)c3nccnc3N)c(N(C)CC3CCCN(C)C3)nc12 (centres unmarked) [Compound 30, 3-amino-N-[(8-methyl-2-{methyl[(1-methylpiperidin-3-yl)methyl]amino}quinolin-3-yl)methyl]pyrazine-2-carboxamide]
500 to 1500 | Cc1cccc2cc(Cn3cnc4c(N)ncnc43)c(NS(C)(=O)=O)nc12 [Compound 153, N-{3-[(6-amino-9H-purin-9-yl)methyl]-8-methylquinolin-2-yl}methanesulfonamide]
< 50 | Cc1cccc2cc(CNc3ncnc4[nH]cnc34)c(-c3ccccc3Cl)nc12 [Compound 154, N-{[2-(2-chlorophenyl)-8-methylquinolin-3-yl]methyl}-9H-purin-6-amine]
50 to 250 | Cc1cccc2cc(Cn3cnc4c(N)ncnc43)c(N3CCCC3C)nc12 (centres unmarked) [Compound 170, 9-{[8-methyl-2-(2-methylpyrrolidin-1-yl)quinolin-3-yl]methyl}-9H-purin-6-amine]
500 to 1500 | Cc1cccc2cc(CNC(=O)c3nccnc3N)c(N3CCCN(Cc4cccn4C)CC3)nc12 [Compound 57, 3-amino-N-[(8-methyl-2-{4-[(1-methyl-1H-pyrrol-2-yl)methyl]-1,4-diazepan-1-yl}quinolin-3-yl)methyl]pyrazine-2-carboxamide]
250 to 500 | CC(=O)N1CCN(c2nc3c(C)cccc3cc2CNC(=O)c2nccnc2N)CC1 [Compound 124, N-{[2-(4-acetylpiperazin-1-yl)-8-methylquinolin-3-yl]methyl}-3-aminopyrazine-2-carboxamide]
50 to 250 | Cc1cccc2cc(CNC(=O)c3nccnc3N)c(N(C)CCN(C)C(=O)[C@H]3CCCN3)nc12 [Compound 102, 3-amino-N-{[8-methyl-2-(methyl{2-[methyl(D-prolyl)amino]ethyl}amino)quinolin-3-yl]methyl}pyrazine-2-carboxamide]
500 to 1500 | Cc1ccccc1-n1c(CNC(=O)c2nccnc2N2CCOCC2)nc2cccc(C)c2c1=O [Compound 151]
50 to 250 | Cc1ccccc1-c1nc2c(C)cccc2cc1Cn1cnc2c(N)ncnc21 [Compound 189, 9-{[8-methyl-2-(2-methylphenyl)quinolin-3-yl]methyl}-9H-purin-6-amine]
< 50 | Cc1cccc2cc(Cn3cnc4c(N)ncnc43)c(N(C)CCN(C)C(=O)Cn3ccnn3)nc12 [Compound 34, N-{2-[{3-[(6-amino-9H-purin-9-yl)methyl]-8-methylquinolin-2-yl}(methyl)amino]ethyl}-N-methyl-2-(1H-1,2,3-triazol-1-yl)acetamide]
< 50 | Cc1cccc2cc(CNC(=O)c3nccnc3N)c(N(C)CC3CCN(C)CC3)nc12 [Compound 31, 3-amino-N-[(8-methyl-2-{methyl[(1-methylpiperidin-4-yl)methyl]amino}quinolin-3-yl)methyl]pyrazine-2-carboxamide]
< 50 | Cc1cccc2cc(CNc3ncnc4[nH]cnc34)c(N(C)CCN(C)C(=O)Cn3ccnn3)nc12 [Compound 35, N-methyl-N-[2-(methyl{8-methyl-3-[(9H-purin-6-ylamino)methyl]quinolin-2-yl}amino)ethyl]-2-(1H-1,2,3-triazol-1-yl)acetamide]
500 to 1500 | Cc1ccccc1-c1nc2ccccc2nc1Cn1cnc2c(N)ncnc21 [Compound 190, 9-{[3-(2-methylphenyl)quinoxalin-2-yl]methyl}-9H-purin-6-amine]
500 to 1500 | Cc1ccccc1-c1c(Cn2cnc3c(N)ncnc32)nc2ccccc2c1C [Compound 168, 9-{[4-methyl-3-(2-methylphenyl)quinolin-2-yl]methyl}-9H-purin-6-amine]
50 to 250 | Cc1cccc2cc(CNC(=O)c3nccnc3N)c(N(C)CCN(C)C(=O)CN)nc12 [Compound 115, 3-amino-N-({2-[{2-[glycyl(methyl)amino]ethyl}(methyl)amino]-8-methylquinolin-3-yl}methyl)pyrazine-2-carboxamide]
50 to 250 | CN(C)Cc1ccccc1-c1cc2ccccc2nc1CNC(=O)c1nccnc1N [Compound 92, 3-amino-N-[(3-{2-[(dimethylamino)methyl]phenyl}quinolin-2-yl)methyl]pyrazine-2-carboxamide]

Compound | IC50 [nM]
Cc1ccccc1-n1c(CNC(=O)c2nccnc2Cl)nc2cccc(C)c2c1=O [Compound 159, 3-chloro-N-{[5-methyl-3-(2-methylphenyl)-4-oxo-3,4-dihydroquinazolin-2-yl]methyl}pyrazine-2-carboxamide] | 500 to 1500
